Results: ChEMBL document CHEMBL5665443, “Enzyme Inhibitor Single Concentration assay results for EUbOPEN Chemogenomics Library” (2024)

Legend:
Conditions in all cases: Hit No
[1] = target: T1, Endonuclease III-like protein 1 (Homo sapiens) (UniProt P78549);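 also: enzyme assay tracking NTHL1 cutting and release of a quenched double-stranded DNA oligo substrate, read as fluorescence at 594 nm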
T1 sequence (whole entry): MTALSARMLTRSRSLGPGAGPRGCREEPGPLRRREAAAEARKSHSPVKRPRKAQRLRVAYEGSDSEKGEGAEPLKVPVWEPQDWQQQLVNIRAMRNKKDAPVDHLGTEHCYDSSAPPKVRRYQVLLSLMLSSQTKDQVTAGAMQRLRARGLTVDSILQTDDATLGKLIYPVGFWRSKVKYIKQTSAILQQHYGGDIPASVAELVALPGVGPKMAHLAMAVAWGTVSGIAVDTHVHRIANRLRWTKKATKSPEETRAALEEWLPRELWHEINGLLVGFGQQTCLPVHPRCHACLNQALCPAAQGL
Description: Inhibition of NTHL1 by quantifying inhibition of NTHL1-mediated cleavage and dissociation of quenched duplex DNA oligonucleotides, measured as fluorescence at 594 nm.

[2] = target: G/T mismatch-specific thymine DNA glycosylase (Homo sapiens) (UniProt Q13569);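 also: human TDG cleavage of quenched duplex DNA oligonucleotides coupled to APE1, strand release read as fluorescence at 594 nm, inhibition of TDG activity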
Description: Inhibition of TDG by quantifying inhibition of TDG-mediated cleavage and dissociation of quenched duplex DNA oligonucleotides, measured as fluorescence at 594 nm. To generate a functional strand incision and increase turn-over this assay is coupled to APE1.

[3] = target: T2, Adenine DNA glycosylase (Homo sapiens) (UniProt Q9UIF7);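 also: human MUTYH activity read as 594 nm fluorescence from cleavage and release of a quenched DNA duplex, coupled with APE1 for strand incision, lower signal meaning inhibition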
T2 sequence (whole entry): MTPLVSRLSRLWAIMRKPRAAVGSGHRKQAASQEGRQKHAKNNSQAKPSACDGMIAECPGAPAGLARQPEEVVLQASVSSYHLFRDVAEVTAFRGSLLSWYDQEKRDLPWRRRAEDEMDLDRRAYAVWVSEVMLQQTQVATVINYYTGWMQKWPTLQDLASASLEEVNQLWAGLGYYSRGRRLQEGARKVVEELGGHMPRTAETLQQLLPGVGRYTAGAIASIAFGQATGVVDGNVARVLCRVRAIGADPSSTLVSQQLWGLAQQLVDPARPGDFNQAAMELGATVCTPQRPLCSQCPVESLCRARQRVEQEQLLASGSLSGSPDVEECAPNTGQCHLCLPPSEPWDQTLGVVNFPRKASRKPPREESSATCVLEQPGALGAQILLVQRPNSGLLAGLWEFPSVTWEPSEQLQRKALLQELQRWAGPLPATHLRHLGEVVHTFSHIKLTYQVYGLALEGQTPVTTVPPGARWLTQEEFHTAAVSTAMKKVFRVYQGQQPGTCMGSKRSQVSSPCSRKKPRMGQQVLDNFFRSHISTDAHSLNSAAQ
Description: Inhibition of MUTYH by quantifying inhibition of MUTYH-mediated cleavage and dissociation of quenched duplex DNA oligonucleotides, measured as fluorescence at 594 nm. To generate a functional strand incision and increase turn-over this assay is coupled to APE1.

[4] = target: N-glycosylase/DNA lyase (Homo sapiens) (UniProt O15527);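 also: OGG1 cleavage of a quenched duplex DNA oligonucleotide, coupled to APE1 for strand incision, read as fluorescence at 594 nm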
Description: Inhibition of OGG1 by quantifying inhibition of OGG1-mediated cleavage and dissociation of quenched duplex DNA oligonucleotides, measured as fluorescence at 594 nm. To generate a functional strand incision and increase turn-over this assay is coupled to APE1.

[5] = target: Uracil-DNA glycosylase (Homo sapiens) (UniProt P13051);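 also: UNG excision on a quenched double-stranded DNA oligo probe, with APE1 added for strand incision and turnover, read as fluorescence at 594 nm as strands separate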
Description: Inhibition of UNG by quantifying inhibition of UNG-mediated cleavage and dissociation of quenched duplex DNA oligonucleotides, measured as fluorescence at 594 nm. To generate a functional strand incision and increase turn-over this assay is coupled to APE1.

[6] = target: Endonuclease 8-like 1 (Homo sapiens) (UniProt Q96FI4);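 also: fluorescence at 594 nm from quenched duplex DNA oligonucleotides released by NEIL1 cleavage and strand separation, reported as reduction of this enzyme activity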
Description: Inhibition of NEIL1 by quantifying inhibition of NEIL1-mediated cleavage and dissociation of quenched duplex DNA oligonucleotides, measured as fluorescence at 594 nm.

[7] = target: T3, Single-strand selective monofunctional uracil DNA glycosylase (Homo sapiens) (UniProt Q53HV7);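 also: enzymatic SMUG1 assay coupled with APE1, reading fluorescence at 594 nm released when a quenched double-stranded DNA oligonucleotide substrate is cleaved and separated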
T3 sequence (whole entry): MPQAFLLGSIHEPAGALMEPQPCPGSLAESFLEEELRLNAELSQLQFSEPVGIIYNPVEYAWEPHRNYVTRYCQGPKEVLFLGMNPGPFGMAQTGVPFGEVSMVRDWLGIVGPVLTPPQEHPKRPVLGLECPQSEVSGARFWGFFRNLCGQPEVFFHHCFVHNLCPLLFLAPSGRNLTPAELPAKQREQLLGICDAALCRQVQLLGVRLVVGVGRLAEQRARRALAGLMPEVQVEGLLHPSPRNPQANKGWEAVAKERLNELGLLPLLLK
Description: Inhibition of SMUG1 by quantifying inhibition of SMUG1-mediated cleavage and dissociation of quenched duplex DNA oligonucleotides, measured as fluorescence at 594 nm. To generate a functional strand incision and increase turn-over this assay is coupled to APE1.

[8] = target: Methyl-CpG-binding domain protein 4 (Homo sapiens) (UniProt O95243);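 also: MBD4 activity read as fluorescence at 594 nm from cleavage and release of a quenched duplex DNA oligonucleotide, with APE1 coupled to incise the strand and raise turnover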
Description: Inhibition of MBD4 by quantifying inhibition of MBD4-mediated cleavage and dissociation of quenched duplex DNA oligonucleotides, measured as fluorescence at 594 nm. To generate a functional strand incision and increase turn-over this assay is coupled to APE1.

[9] = target: T4, Endonuclease 8-like 2 (Homo sapiens) (UniProt Q969S2);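 also: fluorescence at 594 nm reports NEIL2 cutting and release of a quenched double-stranded DNA oligo substrate, reduced signal read as inhibition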
T4 sequence (whole entry): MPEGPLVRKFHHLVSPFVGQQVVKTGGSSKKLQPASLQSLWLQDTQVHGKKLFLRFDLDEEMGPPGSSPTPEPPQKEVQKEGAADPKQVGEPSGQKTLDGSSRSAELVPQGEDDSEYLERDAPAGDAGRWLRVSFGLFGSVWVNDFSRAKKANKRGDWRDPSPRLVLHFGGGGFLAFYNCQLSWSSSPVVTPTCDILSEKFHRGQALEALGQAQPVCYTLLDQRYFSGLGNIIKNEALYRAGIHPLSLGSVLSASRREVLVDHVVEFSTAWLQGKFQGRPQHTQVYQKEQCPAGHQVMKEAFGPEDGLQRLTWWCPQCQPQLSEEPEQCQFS
Description: Inhibition of NEIL2 by quantifying inhibition of NEIL2-mediated cleavage and dissociation of quenched duplex DNA oligonucleotides, measured as fluorescence at 594 nm.

Chain of Methyl-CpG-binding domain protein 4 (Homo sapiens) (O95243 whole entry, the tested form may be a part): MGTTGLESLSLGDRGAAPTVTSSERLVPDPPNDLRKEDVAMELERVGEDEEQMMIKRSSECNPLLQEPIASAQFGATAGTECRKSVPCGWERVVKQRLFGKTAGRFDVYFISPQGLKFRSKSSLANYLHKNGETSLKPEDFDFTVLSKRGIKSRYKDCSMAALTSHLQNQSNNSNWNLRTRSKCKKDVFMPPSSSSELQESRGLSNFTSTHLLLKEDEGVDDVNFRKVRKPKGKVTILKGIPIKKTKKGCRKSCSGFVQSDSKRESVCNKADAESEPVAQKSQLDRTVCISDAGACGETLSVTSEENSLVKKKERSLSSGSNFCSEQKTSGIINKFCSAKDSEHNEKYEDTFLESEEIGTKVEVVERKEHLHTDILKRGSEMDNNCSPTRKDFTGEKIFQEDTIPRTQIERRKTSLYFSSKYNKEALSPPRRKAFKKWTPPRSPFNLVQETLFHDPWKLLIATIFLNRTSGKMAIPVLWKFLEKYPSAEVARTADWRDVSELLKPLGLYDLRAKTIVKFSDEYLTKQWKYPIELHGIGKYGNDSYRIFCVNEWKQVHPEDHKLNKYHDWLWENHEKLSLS
Chain of Uracil-DNA glycosylase (Homo sapiens) (P13051 whole entry): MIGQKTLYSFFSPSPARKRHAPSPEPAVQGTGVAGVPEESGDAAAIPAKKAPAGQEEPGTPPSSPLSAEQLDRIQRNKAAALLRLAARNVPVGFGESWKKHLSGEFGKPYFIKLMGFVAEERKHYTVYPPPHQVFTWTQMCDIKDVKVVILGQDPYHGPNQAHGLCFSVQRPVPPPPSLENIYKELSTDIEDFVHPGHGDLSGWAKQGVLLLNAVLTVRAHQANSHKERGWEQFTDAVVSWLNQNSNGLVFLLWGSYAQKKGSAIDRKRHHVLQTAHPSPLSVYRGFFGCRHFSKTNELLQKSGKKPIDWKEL
Chain of Endonuclease 8-like 1 (Homo sapiens) (Q96FI4 whole entry): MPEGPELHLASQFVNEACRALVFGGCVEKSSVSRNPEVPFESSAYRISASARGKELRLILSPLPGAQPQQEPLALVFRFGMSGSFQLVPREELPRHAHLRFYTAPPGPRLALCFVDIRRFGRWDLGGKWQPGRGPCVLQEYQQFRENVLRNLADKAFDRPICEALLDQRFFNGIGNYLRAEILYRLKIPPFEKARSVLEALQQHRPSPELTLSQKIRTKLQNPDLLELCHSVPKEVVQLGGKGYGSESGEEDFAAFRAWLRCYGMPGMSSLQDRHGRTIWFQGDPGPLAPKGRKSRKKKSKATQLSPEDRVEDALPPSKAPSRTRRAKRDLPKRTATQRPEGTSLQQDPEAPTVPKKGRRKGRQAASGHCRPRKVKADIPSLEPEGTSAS
Chain of N-glycosylase/DNA lyase (Homo sapiens) (O15527 whole entry): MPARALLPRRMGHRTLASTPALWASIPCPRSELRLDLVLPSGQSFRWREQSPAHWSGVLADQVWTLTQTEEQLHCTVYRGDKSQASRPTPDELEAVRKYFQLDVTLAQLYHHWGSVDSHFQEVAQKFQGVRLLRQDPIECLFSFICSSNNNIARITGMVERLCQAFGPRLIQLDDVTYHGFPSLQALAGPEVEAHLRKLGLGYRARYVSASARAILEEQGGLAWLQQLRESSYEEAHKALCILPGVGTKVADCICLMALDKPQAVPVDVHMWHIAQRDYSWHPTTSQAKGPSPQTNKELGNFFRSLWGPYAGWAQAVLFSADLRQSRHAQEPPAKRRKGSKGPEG
Chain of G/T mismatch-specific thymine DNA glycosylase (Homo sapiens) (Q13569 whole entry): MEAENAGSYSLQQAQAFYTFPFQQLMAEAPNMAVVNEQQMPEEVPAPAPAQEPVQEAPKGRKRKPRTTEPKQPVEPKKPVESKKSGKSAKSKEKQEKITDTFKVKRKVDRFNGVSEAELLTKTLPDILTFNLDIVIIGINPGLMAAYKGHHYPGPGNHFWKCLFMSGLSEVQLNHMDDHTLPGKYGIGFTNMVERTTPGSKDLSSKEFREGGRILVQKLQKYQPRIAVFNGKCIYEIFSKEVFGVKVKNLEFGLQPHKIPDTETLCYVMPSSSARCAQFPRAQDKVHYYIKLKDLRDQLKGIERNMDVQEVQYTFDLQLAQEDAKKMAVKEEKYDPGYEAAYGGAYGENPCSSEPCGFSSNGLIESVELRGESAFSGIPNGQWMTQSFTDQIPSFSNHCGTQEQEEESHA

Structure (SMILES) | inhibition ([1]; Compound Concentration 10.0 uM) [%] | inhibition ([2]; Compound Concentration 10.0 uM) [%] | inhibition ([3]; Compound Concentration 10.0 uM) [%] | inhibition ([4]; Compound Concentration 10.0 uM) [%] | inhibition ([5]; Compound Concentration 10.0 uM) [%] | inhibition ([6]; Compound Concentration 10.0 uM) [%] | inhibition ([7]; Compound Concentration 10.0 uM) [%] | inhibition ([8]; Compound Concentration 10.0 uM) [%] | inhibition ([9]; Compound Concentration 10.0 uM) [%] | inhibition ([1]; Compound Concentration 1.0 uM) [%] | inhibition ([2]; Compound Concentration 1.0 uM) [%] | inhibition ([3]; Compound Concentration 1.0 uM) [%] | inhibition ([5]; Compound Concentration 1.0 uM) [%] | inhibition ([6]; Compound Concentration 1.0 uM) [%] | inhibition ([7]; Compound Concentration 1.0 uM) [%] | inhibition ([8]; Compound Concentration 1.0 uM) [%] | inhibition ([4]; Compound Concentration 1.0 uM) [%] | inhibition ([9]; Compound Concentration 1.0 uM) [%]
O=C(O)c1ccc(C(=O)N[C@@H](c2ccc(OC(F)(F)F)c(F)c2)c2ncccc2F)nc1 | 22.9 | 8.79 | 7.76 | -2.45 | -9.18 | 5.2 | -6.46 | 11.1 | 13.9 | – | – | – | – | – | – | – | – | –
CCO[C@H](COc1ccc(C(F)(F)F)cc1)CSc1ccc(OCC(=O)O)c(C)c1 | -4.57 | 59.2 | 16.2 | 20.8 | 6.42 | -4.99 | 20.8 | 71.4 | 3.59 | – | – | – | – | – | – | – | – | –
Fc1ccc(-c2c3cccc(C(F)(F)F)c3nn2Cc2ccc(F)cc2Cl)cc1 | -1.29 | 53.1 | 1.43 | 8 | 4.08 | -7.41 | 12.2 | 53.9 | -0.489 | – | – | – | – | – | – | – | – | –
CC(C)(O)CNc1ncc(-c2ccnc(Nc3ccnc(Cl)c3)n2)c(CC2CC2)n1 | 5.67 | 44.6 | 0.0658 | -4.97 | -2.03 | -7.52 | 21.2 | -8.47 | -9.73 | – | – | – | – | – | – | – | – | –
Cc1cccc(-c2cnc3occ(-c4ccc(C(=O)O)c(C5CCCC5)c4)c3c2)c1 | 4.27 | 36.3 | 15.7 | 66.5 | -0.203 | 6.08 | 18.9 | 33 | -2.46 | – | – | – | – | – | – | – | – | –
CCc1ccccc1C(=O)Nc1n[nH]c2c(C)c(F)c(C3C(C#N)=C(C)N(C)C(C)=C3C#N)cc12 | -1.95 | 43.7 | 2.35 | 11.1 | 9.1 | -6.65 | 29.9 | 44.9 | 5.63 | 13.3 | 36.9 | 6.2 | 1.06 | 0.0055 | 13.1 | 55 | – | –
N#CN1CC[C@H](C(=O)Nc2nc3c(s2)CN(C(=O)CN=[N+]=[N-])CC3)C1 | 7.92 | 40.4 | -6.77 | -6.61 | 1.18 | 3.04 | 6.53 | 53.6 | 5.89 | – | – | – | – | – | – | – | – | –
CNC(=O)c1ccc(Nc2ncc(C(F)(F)F)c(NCc3nccnc3N(C)S(C)(=O)=O)n2)cc1 | -7.86 | 100 | 9.35 | 4.66 | 3.52 | 2.28 | 23.4 | 16.6 | -7.12 | – | 43.6 | – | -2.6 | 3.44 | 10.4 | 13.6 | -7.84 | -4.88
C=C(C)[C@H]1CN[C@H](C(=O)O)[C@H]1CC(=O)O | -1.08 | -2.38 | 8.87 | -6.14 | -5.09 | -4.88 | -0.636 | 2.41 | -3.66 | – | – | – | – | – | – | – | – | –
CN(C)c1ncc2cc(-c3ccc(-c4ncccc4F)cc3Cl)c(=O)n(C[C@H]3OC[C@H](N)CO3)c2n1 | -1.31 | 41.3 | 13.7 | -0.214 | 6.12 | 2.65 | 26.9 | -0.894 | 1.58 | – | – | – | – | – | – | – | – | –
